We go through four compounds from patent US12377103B2, “Use of bromodomain-containing protein 9 inhibitors to treat and/or prevent uterine leiomyosarcoma” (The University of Chicago, priority 2022, dated 2025).

Structures are written as SMILES.

Series [1] concerns SW48 colon cancer cells. To be noted: cited from earlier work.
Series [2] has as its target CECR2 BRD (Homo sapiens, UniProt Q9BXF3). Particulars: within cells; cited from earlier work.
The test system of series [3] is endometrial cancer cells. Particulars: cited from earlier work.
In series [4] the test system is MES-SA cells. The series can be described thus: Proliferation assay (trypan blue exclusion), MES-SA. It is filed as cell-based, human. To be noted: 1-25 μM, 48 h, FIG. 4D. As for the experimental part:
(§1) The leiomyosarcoma (uLMS) cell line (SK-UT1, ATCC® HTB-114TM) (ATCC, Manassas, VA, USA) was cultured and maintained in ATCC-formulated Eagle's Minimum Essential Medium with 10% of fetal bovine serum. In addition, the uterine sarcoma cell line (MES-SA) (ATCC, Manassas, VA, USA) was cultured and maintained in McCoy's 5A medium. The immortalized human leiomyoma cell line (HuLM) and immortalized human uterine smooth muscle (UTSM) cells were a generous gift from Professor Darlene Dixon. The HuLM and UTSM cell lines were cultured and maintained in phenol red-free, Dulbecco's Modified Eagle Medium: Nutrient Mixture F-12. These cell lines, covering the spectrum from normal cell line (UTSM), benign uterine tumor cell line (HuLM), and uterine malignant cell lines (uLMS), were used to better understand the tumor progression linking to the BRD9 dysregulation in uLMS. BRD9 inhibitor (iBRD9) TP-472 was purchased from Tocris (Cat #6000, Minneapolis, MN, USA).
(§2) Cell proliferation was measured using trypan blue exclusion assay; 4 104 cells per well were seeded into 12-well tissue culture plates, treated with the iBRD9 (TP-472) at a dose range from 1-25 μM for 48 h. This assay was performed three times in triplicate.
(§3) Trypan blue exclusion assay was performed in SK-UT-1 and MES-SA cell lines treated for 48 h with TP-472 at dose ranges from 1-25 μM.

Series [5] deals with SK-UT-1 cells. The series can be described thus: Proliferation assay (trypan blue exclusion), SK-UT-1. Type of series: cell-based, human. To be noted: 1-25 μM, 48 h, FIG. 4C. As for the experimental part:
as §1, §2, §3

Series [6] has as its system melanoma. Particulars: by suppressing ECM-mediated oncogenic signaling and inducing apoptosis; cited from earlier work.
Series [7] deals with SK-UT-1 cells. The series can be described thus: qRT-PCR validation of cell cycle and apoptosis genes. It is filed as cell-based, human. To be noted: iBRD9 treatment. As for the experimental part: Total RNA was isolated using Trizol reagent (Invitrogen, Carlsbad, CA, USA). The concentration of total RNA was determined using NanoDrop (Thermo Scientific, Waltham, MA, USA). One microgram of total RNA from each sample was reverse transcribed to complementary DNA (cDNA) using the High-Capacity cDNA Transcription Kit (Thermo Scientific, Waltham, MA, USA). Quantitative real-time polymerase chain reaction (qRT-PCR) was performed to determine the messenger RNA (mRNA) expression of several genes listed with their primer sequences in Table 2. The real-time PCR reactions were performed using CFX96 PCR instrument using SYBR Green Supermix (Bio-Rad, Hercules, CA, USA). 18S was used as an internal control. The results are presented as relative gene expression using CFX Maestro™. The assay was performed three times in triplicate.
Quantitative real-time PCR was performed to determine the mRNA expression of genes as described previously. An equal amount of cDNA from each sample was added to the Master mix containing appropriate primer sets and SYBR green supermix (Bio-Rad) in a 20 μL reaction volume. All samples were analyzed in triplicates. Real-time PCR analyses were performed using a Bio-Rad CFX96. Cycling conditions included denaturation at 95° C. for 2 min followed by 40 cycles of 95° C. for 5 s and 60° C. for 30 seconds then 65° C. for 5 seconds. […]

The target in series [8] is BRD9 (Homo sapiens, UniProt Q9H8M2). Particulars: cited from earlier work.
For series [9], the system named is BCL-2. The experiment in a line: Western blot of BCL-2 protein levels in SK-UT-1 cells. Particulars: dose-dependent manner, FIG. 4E-4F. Type of series: cell-based, human. On the procedure: Cells were collected and lysed in RIPA lysis buffer with protease and phosphatase inhibitor cocktail (Thermo Scientific, Waltham, MA, USA), the protein was quantified using the Bradford method (Bio-Rad Protein Assay kit). The antigen—antibody complex was detected with Trident Femto Western HRP substrate (Gene-Tex, Irvine, CA, USA). Specific protein bands were visualized using ChemiDoc XRS ♭ molecular imager (Bio-Rad, Hercules, CA, USA).
as §3
In general terms: In western blotting, separated proteins are transferred to a membrane and probed.

Series [10] deals with SK-UT-1 cells. The series can be described thus: RNA-sequencing of TP-472 vs control treated SK-UT-1 cells. It is filed as cell-based, human. On the procedure: To determine the mechanism underlying the inhibitory effect of BRD9 inhibition on the uLMS, the SK-UT-1 cells were treated with iBRD9 TP-472 (5 μM) for 48 h. RNA was isolated using Trizol. RNA quality and quantity were assessed using the Agilent bio-analyzer. Strand-specific RNA-SEQ libraries were prepared using a TruSEQ total RNA-SEQ library protocol (Illumina provided). Library quality and quantity were assessed using the Agilent bio-analyzer and libraries were sequenced using an Illumina NovaSEQ6000 (illumine provided reagents and protocols).
A variety of R packages was used for this analysis. All graphics and data wrangling were handled using the tidyverse suite of packages. All packages used are available from the Comprehensive R Archive Network (CRAN), the Bioconductor project, or Github. The reads were mapped to the human reference transcriptome using STAR, version 2.6.1d (GitHub, Inc., San Francisco, CA, USA). The quality of raw reads, as well as the results of STAR mapping, are generated using fastqc and multiqc. Raw reads were mapped to the human reference transcriptome using Salmon, version 1.4.0. After reading mapping with Salmon, the tximport software package (Bioconductor project, accessed on 27 Oct. 2021) was used to read Salmon outputs into the R environment. Annotation data from Gencode V34 was used to summarize data from transcript-level to gene-level.
For Parsimonious gene correlation network analysis (PGCNA), normalized matrix of DEGs (Adjusted p-Values<0.05 and […]; n=3583) and the top 80% of the most variance genes across samples (n=10,848) were used to network construction. The matrix was used to calculate Spearman rank correlations for all gene pairs using the Python PGCNA2 package. For each gene (row) in a correlation matrix, only the three most correlated edges per gene were retained. The correlation matrices were clustered 100 times using the fast unfolding of communities in a large network's algorithm and the best (judged by modularity score) were used for downstream analysis. Gephi package with the ForceAt-1as2 layout method was used to visualize the network. Enrichment analyses were performed using the Enrichr web server (Ma′ayan lab at Icahn School of Medicine at Mount Sinai, accessed on 10 Jan. 2022) through EnrichR package in R software. Top biological process GO terms with the false discovery rate (FDR)[…] were analyzed using REVIGO to summarize and find a representative subset of the terms. STRING database (accessed on 27 Apr. 2022), which is the online search tool to protein-protein network (PPI) construction, was used to reconstruct each modules network (A combined score≥0.4 of PPI pairs was considered significant), then the Cytoscape software was employed to analyze the obtained networks. In addition, the Venn diagram online tool provided by VIB and Ghent University (accessed on 27 Apr. 2022) was used to investigate the intersection of DEGs and selected modules.
To determine the mechanistic action of TP-472 inhibition on uLMS cells, RNA-sequencing analysis was performed in control and TP-472 treated cells (n=4 each).

The subject of series [11] is macrophages. To be noted: cited from earlier work.
Series [12] concerns ovarian cancer. To be noted: associated with cell cycle arrest, apoptosis induction, metabolic alterations; cited from earlier work.
Where [13] appears, read: SK-UT-1 cells, 5 μM, 48 h, n=4 each.
Where [14] appears, read: module I, SK-UT-1, TP-472 5 μM 48 h vs control.
[15] abbreviates: module III, SK-UT-1, TP-472 5 μM 48 h vs control.
[16] abbreviates: module VI, SK-UT-1, TP-472 5 μM 48 h vs control.
Setting [17] is: module VII, SK-UT-1, TP-472 5 μM 48 h vs control.

Chain of CECR2 BRD (Q9BXF3 434-538 limits assumed): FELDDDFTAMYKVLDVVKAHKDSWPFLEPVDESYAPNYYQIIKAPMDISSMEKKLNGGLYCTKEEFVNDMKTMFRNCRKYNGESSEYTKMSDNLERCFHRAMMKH
Chain of BRD9 (Q9H8M2 whole entry): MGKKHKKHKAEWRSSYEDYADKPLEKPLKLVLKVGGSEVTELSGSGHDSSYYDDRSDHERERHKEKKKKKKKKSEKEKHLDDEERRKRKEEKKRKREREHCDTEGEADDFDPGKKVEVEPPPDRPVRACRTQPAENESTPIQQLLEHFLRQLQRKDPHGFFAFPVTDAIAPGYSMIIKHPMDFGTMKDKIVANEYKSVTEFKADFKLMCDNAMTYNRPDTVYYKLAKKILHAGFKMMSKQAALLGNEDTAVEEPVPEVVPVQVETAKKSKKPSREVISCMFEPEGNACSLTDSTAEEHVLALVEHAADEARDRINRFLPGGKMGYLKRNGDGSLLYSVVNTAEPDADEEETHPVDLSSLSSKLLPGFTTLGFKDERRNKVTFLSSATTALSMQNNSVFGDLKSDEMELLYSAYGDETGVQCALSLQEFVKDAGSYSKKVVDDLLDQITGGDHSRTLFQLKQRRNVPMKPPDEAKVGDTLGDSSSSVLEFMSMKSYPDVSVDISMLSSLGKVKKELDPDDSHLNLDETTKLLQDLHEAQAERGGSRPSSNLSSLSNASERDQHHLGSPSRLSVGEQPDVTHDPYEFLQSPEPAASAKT

In the case of `CCCS(=O)(=O)c1nc(NC2CC2)cc(-c2ccc3c(ccn3C3CC(C)(C)NC(C)(C)C3)c2)n1` [NVS-CECR2-1], the “cytotoxic activity against human cancer cells” value in series [1] was “killing SW48 colon cancer cells by inducing apoptosis”. The “chromatin binding of CECR2 BRD” value in series [2] is reported as “inhibits”.

`O=C1NC(=NCc2cccs2)S/C1=C\c1ccc2ncccc2c1` [RO3306]: the “cell apoptosis and cell cycle in endometrial cancer cells” value in [3] is “induced cell apoptosis and caused G2/M phase arrest”.

For the compound `CC(=O)c1cc(-c2cc(C(=O)NC3CC3)ccc2C)c2ncccn12` [TP-472], in series [4], the “effect on proliferation of MES-SA cells” value is “dose-dependent inhibitory effect”. Further, the “effect on proliferation of SK-UT-1 cells” value in series [5] is listed as “dose-dependent inhibitory effect”. Also, in [6], the “tumor growth in melanoma” value is “blocked tumor growth”. Also, the “expression of CDKN1A by q-PCR” value in [7] (FIG. 7G) is on record as “significant increase”. Also, the “expression of BAK1 by q-PCR” value in series [7] (FIG. 7H) is recorded as “significant increase”. In addition, the “potency for BRD9” value in series [8] is reported as “high potency”. Also, the “protein levels of BCL-2” value in series [9] is “significantly decreased”. In [10] (RNA-seq, treated SK-UT-1 cells vs control, FIG. 7B), the “mRNA levels of BAK” value was “significantly increased”. Further, in series [10] (RNA-seq, treated uLMS cells vs control, FIG. 7A), the CDKN1A expression entry is listed as “significantly higher”. Besides, the “expression of AKT1” value in series [10] (RNA-seq, treated uLMS cells, FIG. 7C) is on record as “markedly decreased”. For the same compound, in series [10] (RNA-seq, treated uLMS cells, FIG. 7D), the “expression of AKT2” value is on record as “significantly decreased”. In [10] (RNA-seq, uLMS cells, FIG. 7E), the “expression of Gill” value is given as “significantly decreased”. Moreover, the GLI2 expression result in series [10] (RNA-seq, uLMS cells, FIG. 7F) is “markedly reduced”. In series [10] (setting [13]), the “differentially expressed genes (DEGs), down” value stood at 1741; the “differentially expressed genes (DEGs), total” value is listed as 3583; the “differentially expressed genes (DEGs), up” value came to 1842. Besides, in series [10] (setting [14]), the “FC of hub gene CEBPB” value was found to be 1.75, the “FC of hub gene EGR1” value was found to be 1.63, the “FC of hub gene FOS” value worked out at 1.50 and the “FC of hub gene GATA2” value stood at 2.26. In series [10] (setting [14]), the “FC of hub gene GRIN1” value was 2.54, the “FC of hub gene MYC” value was found to be 1.56, the “FC of hub gene SHH” value was determined as 4.66 and the “FC of hub gene SOX9” value is listed as 2.02. Moreover, in [10] (setting [14]), the “FC of hub gene STX1A” value is reported as 1.78 and the “FC of hub gene TERT” value stood at 1.68. Besides, in series [10] (setting [15]), the “FC of hub gene CCT2” value worked out at 1.61, the “FC of hub gene CYCS” value stood at 1.86, the “FC of hub gene EIF2S1” value was 1.52 and the “FC of hub gene HSPA8” value came out at 1.75. For the same compound, in series [10] (setting [15]), the “FC of hub gene IMP3” value was determined as 1.62, the “FC of hub gene NIP7” value is 1.92, the “FC of hub gene NOP56” value came out at 1.64 and the “FC of hub gene NOP58” value worked out at 1.74. Further, in [10] (setting [15]), the “FC of hub gene PA2G4” value is listed as 1.55 and the “FC of hub gene RPL26L1” value came to 1.58. Moreover, in series [10] (setting [16]), the “FC of hub gene BYSL” value stood at 1.75, the “FC of hub gene CCND1” value was determined as 2.21, the “FC of hub gene FN1” value turned out to be 2.40 and the “FC of hub gene HRAS” value turned out to be 1.60. Besides, in series [10] (setting [16]), the “FC of hub gene JUN” value is reported as 3.13, the “FC of hub gene KIT” value came to 20.37, the “FC of hub gene LEF1” value is 6.22 and the “FC of hub gene MRTO4” value is 2.16. Further, in series [10] (setting [16]), the “FC of hub gene PDCD11” value was 1.69 and the “FC of hub gene RRP9” value is reported as 2.71. Moreover, in series [10] (setting [17]), the “FC of hub gene CDK1” value is on record as −1.56, the “FC of hub gene CHEK2” value is −1.69, the “FC of hub gene FGF2” value was −1.56 and the “FC of hub gene HLTF” value is listed as −1.78. Also, in series [10] (setting [17]), the “FC of hub gene MIS18BP1” value is −1.53, the “FC of hub gene STAG2” value is −1.51, the “FC of hub gene TIA1” value is on record as −1.60 and the “FC of hub gene TOP2A” value is on record as −1.52. For the same compound, in series [10] (setting [17]), the “FC of hub gene TOP2B” value was −1.52 and the “FC of hub gene WDHD1” value was −1.52.

On to `Cc1sc2c(c1C)C(c1ccc(Cl)cc1)=N[C@@H](CC(=O)OC(C)(C)C)c1nnc(C)n1-2` [JQ1], for which the “IL-6 and TNF levels” value in series [11] was “reduce”. For the same compound, the “tumor growth in ovarian cancer” value in series [12] is “suppresses tumor growth”.
